≈ marks a conversion by molar mass, not a printed value. Where two headings read alike, the source gives them in different places.
Key:
Assay in all cases: MIC, micro-dilution broth method (CLSI)
Assay type in all cases: cell-based
Escherichia coli = system: Escherichia coli
Klebsiella pneumoniae = system: Klebsiella pneumoniae
Enterobacter cloacae = system: Enterobacter cloacae

Compound: Colistin
- MIC (Escherichia coli; E. coli AR0048): 0.5 µg/mL
- MIC (Escherichia coli; E. coli AR0055): 1 µg/mL
- MIC (Escherichia coli; E. coli AR0058): 0.5 µg/mL
- MIC (Escherichia coli; E. coli AR0061): 0.5 µg/mL
- MIC (Escherichia coli; E. coli AR0067): 1 µg/mL
- MIC (Escherichia coli; E. coli AR0069): 0.5 µg/mL
- MIC (Escherichia coli; E. coli AR0077): 0.5 µg/mL
- MIC (Escherichia coli; E. coli AR0081): 0.5 µg/mL
- MIC (Escherichia coli; E. coli AR0084): 0.5 µg/mL
- MIC (Escherichia coli; E. coli AR0085): 0.5 µg/mL
- MIC (Escherichia coli; E. coli AR0086): 0.5 µg/mL
- MIC (Escherichia coli; E. coli AR0089): 0.5 µg/mL
- MIC (Escherichia coli; E. coli AR0104): 0.5 µg/mL
- MIC (Escherichia coli; E. coli AR0114): 0.25 µg/mL
- MIC (Escherichia coli; E. coli AR0118): 0.5 µg/mL
- MIC (Escherichia coli; E. coli AR0119): 0.5 µg/mL
- MIC (Escherichia coli; E. coli AR0128): 0.5 µg/mL
- MIC (Escherichia coli; E. coli AR0137): 1 µg/mL
- MIC (Escherichia coli; E. coli AR0149): 0.5 µg/mL
- MIC (Escherichia coli; E. coli AR0150): 0.5 µg/mL
- MIC (Escherichia coli; E. coli AR0151): 0.5 µg/mL
- MIC (Escherichia coli; E. coli AR0162): 0.5 µg/mL
- MIC (Escherichia coli; E. coli AR0346): 4 µg/mL
- MIC (Escherichia coli; E. coli AR0348): 0.25 µg/mL
- MIC (Escherichia coli; E. coli AR0350): 4 µg/mL
- MIC (Escherichia coli; E. coli AR0493): 8 µg/mL
- MIC (Escherichia coli; E. coli AR0494): 8 µg/mL
- MIC (Escherichia coli; E. coli AR0495): 4 µg/mL
- MIC (Escherichia coli; E. coli AR0541): 0.5 µg/mL
- MIC (Escherichia coli; E. coli AR0543): 0.5 µg/mL
- MIC (Escherichia coli; E. coli AR0546): 0.5 µg/mL
- MIC (Escherichia coli; E. coli AR0551): 0.5 µg/mL
- MIC (Escherichia coli; E. coli AR0559): 0.5 µg/mL
- MIC (Escherichia coli; E. coli AR-0349 (colistin-resistant clinical isolate)): 8 µg/mL
- MIC (Escherichia coli; E. coli AR-0549): 0.25 µg/mL
- MIC (Escherichia coli; E. coli ATCC BAA-2340): 0.25 µg/mL
- MIC (Escherichia coli; E. coli ATCC BAA-2469): 0.25 µg/mL
- MIC (Escherichia coli; E. coli ATCC BAA-2471): 0.25 µg/mL
- MIC (Escherichia coli; E. coli ELZ 4004): 0.25 µg/mL
- MIC (Escherichia coli; E. coli ELZ 4017): 0.25 µg/mL
- MIC (Escherichia coli; E. coli ELZ 4042): 0.25 µg/mL
- MIC (Escherichia coli; E. coli ELZ 4072): 0.25 µg/mL
- MIC (Escherichia coli; E. coli ELZ 4081): 0.25 µg/mL
- MIC (Escherichia coli; E. coli ELZ 4139): 0.25 µg/mL
- MIC (Escherichia coli; E. coli ELZ 4239): 0.25 µg/mL
- MIC (Escherichia coli; E. coli ELZ 4277): 0.25 µg/mL
- MIC (Escherichia coli; E. coli ELZ 4346): 0.25 µg/mL
- MIC (Klebsiella pneumoniae; K. pneumoniae AR0034): 0.5 µg/mL
- MIC (Klebsiella pneumoniae; K. pneumoniae AR0039): 0.5 µg/mL
- MIC (Klebsiella pneumoniae; K. pneumoniae AR0041): 0.5 µg/mL
- MIC (Klebsiella pneumoniae; K. pneumoniae AR0042): 0.5 µg/mL
- MIC (Klebsiella pneumoniae; K. pneumoniae AR0043): 0.5 µg/mL
- MIC (Klebsiella pneumoniae; K. pneumoniae AR0044): 0.5 µg/mL
- MIC (Klebsiella pneumoniae; K. pneumoniae AR0046): 4 µg/mL
- MIC (Klebsiella pneumoniae; K. pneumoniae AR0047): 4 µg/mL
- MIC (Klebsiella pneumoniae; K. pneumoniae AR0049): 0.5 µg/mL
- MIC (Klebsiella pneumoniae; K. pneumoniae AR0066): 1 µg/mL
- MIC (Klebsiella pneumoniae; K. pneumoniae AR0068): 0.5 µg/mL
- MIC (Klebsiella pneumoniae; K. pneumoniae AR0075): 0.5 µg/mL
- MIC (Klebsiella pneumoniae; K. pneumoniae AR0076): 0.5 µg/mL
- MIC (Klebsiella pneumoniae; K. pneumoniae AR0079): 0.5 µg/mL
- MIC (Klebsiella pneumoniae; K. pneumoniae AR0080): 0.5 µg/mL
- MIC (Klebsiella pneumoniae; K. pneumoniae AR0087): 4 µg/mL
- MIC (Klebsiella pneumoniae; K. pneumoniae AR0098): <0.25 µg/mL
- MIC (Klebsiella pneumoniae; K. pneumoniae AR0106): 4 µg/mL
- MIC (Klebsiella pneumoniae; K. pneumoniae AR0107): <0.25 µg/mL
- MIC (Klebsiella pneumoniae; K. pneumoniae AR0109): >8 µg/mL
- MIC (Klebsiella pneumoniae; K. pneumoniae AR0112): 0.5 µg/mL
- MIC (Klebsiella pneumoniae; K. pneumoniae AR0113): 0.5 µg/mL
- MIC (Klebsiella pneumoniae; K. pneumoniae AR0115): 0.5 µg/mL
- MIC (Klebsiella pneumoniae; K. pneumoniae AR0117): 1 µg/mL
- MIC (Klebsiella pneumoniae; K. pneumoniae AR0120): 0.5 µg/mL
- MIC (Klebsiella pneumoniae; K. pneumoniae AR0125): >4 µg/mL
- MIC (Klebsiella pneumoniae; K. pneumoniae AR0126): 0.5 µg/mL
- MIC (Klebsiella pneumoniae; K. pneumoniae AR0129): 0.5 µg/mL
- MIC (Klebsiella pneumoniae; K. pneumoniae AR0135): 0.5 µg/mL
- MIC (Klebsiella pneumoniae; K. pneumoniae AR0138): 2 µg/mL
- MIC (Klebsiella pneumoniae; K. pneumoniae AR0139): 2 µg/mL
- MIC (Klebsiella pneumoniae; K. pneumoniae AR0140): 0.5 µg/mL
- MIC (Klebsiella pneumoniae; K. pneumoniae AR0141): 1 µg/mL
- MIC (Klebsiella pneumoniae; K. pneumoniae AR0142): 0.5 µg/mL
- MIC (Klebsiella pneumoniae; K. pneumoniae AR0143): 1 µg/mL
- MIC (Klebsiella pneumoniae; K. pneumoniae AR0145): 0.5 µg/mL
- MIC (Klebsiella pneumoniae; K. pneumoniae AR0146): 0.5 µg/mL
- MIC (Klebsiella pneumoniae; K. pneumoniae AR0148): 1 µg/mL
- MIC (Klebsiella pneumoniae; K. pneumoniae AR0152): 0.5 µg/mL
- MIC (Klebsiella pneumoniae; K. pneumoniae AR0153): 0.5 µg/mL
- MIC (Klebsiella pneumoniae; K. pneumoniae AR0158): 0.5 µg/mL
- MIC (Klebsiella pneumoniae; K. pneumoniae AR0160): 1 µg/mL
- MIC (Klebsiella pneumoniae; K. pneumoniae AR0347): <0.25 µg/mL
- MIC (Klebsiella pneumoniae; K. pneumoniae AR0542): >8 µg/mL
- MIC (Klebsiella pneumoniae; K. pneumoniae AR0548): 0.5 µg/mL
- MIC (Klebsiella pneumoniae; K. pneumoniae AR0550): <0.25 µg/mL
- MIC (Klebsiella pneumoniae; K. pneumoniae AR0552): 0.5 µg/mL
- MIC (Klebsiella pneumoniae; K. pneumoniae AR0553): 0.5 µg/mL
- MIC (Klebsiella pneumoniae; K. pneumoniae AR0554): 0.5 µg/mL
- MIC (Klebsiella pneumoniae; K. pneumoniae AR0555): 0.5 µg/mL
- MIC (Klebsiella pneumoniae; K. pneumoniae AR-0040): 8 µg/mL
- MIC (Enterobacter cloacae; E. cloacae AR0032): 0.5 µg/mL
- MIC (Enterobacter cloacae; E. cloacae AR0038): 0.5 µg/mL
- MIC (Enterobacter cloacae; E. cloacae AR0050): 0.25 µg/mL
- MIC (Enterobacter cloacae; E. cloacae AR0053): 0.5 µg/mL
- MIC (Enterobacter cloacae; E. cloacae AR0060): 0.5 µg/mL
- MIC (Enterobacter cloacae; E. cloacae AR0065): 0.5 µg/mL
- MIC (Enterobacter cloacae; E. cloacae AR0072): 1 µg/mL
- MIC (Enterobacter cloacae; E. cloacae AR0073): 8 µg/mL
- MIC (Enterobacter cloacae; E. cloacae AR0093): 0.5 µg/mL
- MIC (Enterobacter cloacae; E. cloacae AR0132): 1 µg/mL
- MIC (Enterobacter cloacae; E. cloacae AR0136): 0.5 µg/mL
- MIC (Enterobacter cloacae; E. cloacae AR0154): 0.5 µg/mL
- MIC (Enterobacter cloacae; E. cloacae AR0164): 0.5 µg/mL
- MIC (Enterobacter cloacae; E. cloacae AR0544): 0.25 µg/mL
- MIC (Enterobacter cloacae; E. cloacae AR0545): 0.5 µg/mL
- MIC (Enterobacter cloacae; E. cloacae AR-0163): 16 µg/mL
- MIC (Enterobacter cloacae; E. cloacae ATCC BAA-2341): 0.5 µg/mL
- MIC (Enterobacter cloacae; E. cloacae ATCC BAA-2468): 0.25 µg/mL

Compound: Cc1cc(-c2nc(C(C)(C)C)[nH]c2-c2ccc3c(c2)OCCO3)ccn1 [Compound 1, 4-(2-(tert-butyl)-5-(2,3-dihydrobenzo[b][1,4]dioxin-6-yl)-1H-imidazol-4-yl)-2-methylpyridine]
- MIC (Escherichia coli; Escherichia coli, ATCC25922, E. coli ATCC 25922, read-out: MIC): 8 µg/mL (≈ 22.9 µM)
- MIC (Escherichia coli; Escherichia coli, E. coli AR-0549, read-out: MIC): 16 µg/mL (≈ 45.8 µM)
- MIC (Escherichia coli; Escherichia coli, E. coli ΔrfaC JW3596 (permeability mutant)): 0.25 µg/mL (≈ 0.715 µM)
- MIC (Escherichia coli; Escherichia coli, E. coli ΔtolC JW5503 (efflux-deficient)): 0.03 µg/mL (≈ 0.0859 µM)
- MIC (Klebsiella pneumoniae; Klebsiella pneumoniae, ATCC27736, K. pneumoniae ATCC 27736, read-out: MIC): 16 µg/mL (≈ 45.8 µM)
- MIC (Klebsiella pneumoniae; Klebsiella pneumoniae, ATCCBAA1705, K. pneumoniae ATCC BAA-1705, read-out: MIC): > 128 µg/mL
- MIC (Klebsiella pneumoniae; Klebsiella pneumoniae, K. pneumoniae AR-0040, read-out: MIC): 32 µg/mL (≈ 91.6 µM)
- MIC (Enterobacter cloacae; Enterobacter cloacae, ATCC29893, E. cloacae ATCC 29893, read-out: MIC): > 128 µg/mL
- MIC (Enterobacter cloacae; Enterobacter cloacae, ATCCBAA2468, E. cloacae ATCC BAA-2468, read-out: MIC): 32 µg/mL (≈ 91.6 µM)
- MIC (Enterobacter cloacae; Enterobacter cloacae, E. cloacae AR-0163, read-out: MIC): 64 µg/mL (≈ 183 µM)
